This note sets out measurements from PubChem BioAssay AID179 (DTP/NCI, 2004).

The test relates to CEM cells HIV-1 protection, formazan growth assay. As to the kind of experiment: NCI AIDS Antiviral Assay. The note with it: for IC50: measured here: growth of uninfected CEM cells. The essentials:
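Soluble formazan readout of cell growth; CEM cells ± HIV-1; 5 drug concs. ≥50% protection → retest; ≥50% again = moderately active; reproducible 100% = confirmed active.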

Calls of active or inactive are those of the source.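 The calls were made as follows: active = compounds giving half or more protection of infected cells from virus-caused growth loss, again on retest; inactive = the rest.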 Where only a bound is given, the exact number is not on record here.

With `O=C1c2ccccc2C(=O)c2c(O)c(NCCNCCO)cc(O)c21`, the outcome was inactive.
`CC(C)(C)N1C(=O)c2ccccc2C1(O)C(F)(F)F` (stereo not given): the EC50 – broadly, the concentration that produces a half-maximal response – is > 200 µM and the IC50 – broadly, the concentration that gives 50% inhibition – is 135 µM.
For `Cc1cc(NS(=O)(=O)c2ccc(Nc3c4ccccc4nc4c(C(=O)NCC#N)cccc34)cc2)no1`, in that order: > 200 µM and 10.7 µM.
Taken in the same sequence, the figures for `O=C1c2ccccc2-c2nccc3c2c1nc1ccccc13` were > 200 µM and 8.32 µM.
For `COc1ccc2c(c1[N+](=O)[O-])CC[C@@H]1[C@@H]2CC[C@]2(C)C(=O)CC[C@@H]12`, in that order: > 11 µM and > 11 µM.
Turning to `CCNc1cc2c3c(c1)CCCN3CCC2`, the EC50 is > 200 µM and the IC50 was determined as 8.51 µM.
On to `C=C1C2CC[C@@]3(CC[C@@H]4[C@@]5(C)CCC[C@@]4(C=[N+](CCOC(C)=O)C5)[C@@H]3C2)[C@@H]1OC(C)=O`, for which the result was inactive.
On to `N/C(=N\C(=S)N1CCCCC1)N1CCCCC1`, for which the outcome was inactive.
As to `CCCN(CCC)CCc1ccc(OC2=CCN(C)CC2)cc1`, the EC50 is > 200 µM and the IC50 came to 87.1 µM.
As for `OC1c2ccccc2C2(O)C1C(c1ccccc1)C(c1ccccc1)C2(O)c1ccccc1` (stereo not given), the result was inactive.
With `O=c1oc2cc(O)ccc2c(O)c1C(c1ccccc1)c1c(O)c2ccc(O)cc2oc1=O`, the EC50 was > 200 µM and the IC50 worked out at 178 µM.
`Cl/C=C\C[N+]12CN3CN(CN(C3)C1)C2`: the EC50 is > 200 µM and the half-inhibitory concentration (IC50) was determined as 93.3 µM.
For `c1ccc(CSc2nc3ccccc3nc2-c2cccs2)cc1`, in that order: > 21.4 µM and > 21.4 µM.
In the case of `CSc1nc(C#N)c(N)n1C`, the EC50 was > 200 µM and the IC50 was > 200 µM.
On to `O=C(O)C1(Cl)C2(Cl)C(Cl)=CC3(Cl)C(Cl)(C(=O)O)C2(Cl)C31Cl` (stereo not given), for which the EC50 is > 200 µM and the half-inhibitory concentration (IC50) is > 200 µM.
For `Nc1ccc(Nc2nc(F)nc(-c3c4ccccc4c4n3CCS4)n2)cc1`, the EC50 was > 7.24 µM and the IC50 is 3.63 µM.
`CCOC(=O)c1c(O)cc(=O)[nH]c1N1CCOCC1`: the EC50 is > 200 µM and the concentration for half-maximal inhibition (IC50) was > 200 µM.
Regarding `O=C(O)CCCCCCCCCCCO`, the EC50 was > 200 µM and the IC50 was > 200 µM.
Consider `CS(=O)(=O)N1CC(CCl)c2ccc(NO)cc21` (stereo not given), for which the EC50 was > 200 µM and the IC50 turned out to be 3.72 µM.
As for `O=[N+]([O-])c1ccc2c(c1)/C(=N/N=C1c3ccccc3Cc3ccccc31)c1cc([N+](=O)[O-])cc([N+](=O)[O-])c1-2`, the result was inactive.
With `O=C1/C(=C\c2ccc(O)cc2)CCC/C1=C/c1ccc(Cl)c(Cl)c1`, the EC50 is > 200 µM and the 50% inhibitory concentration (IC50) was found to be 1.12 µM.
Taken in the same sequence, the figures for `O=C1c2ccc(O)cc2OC(c2ccc(O)c(O)c2)C1O` (stereo not given) were > 200 µM and 93.3 µM.
For the compound `CC(=O)OC1CC2OC2(C)C2[C@H](O)C34O[C@@]3(C)C(=O)O[C@H]4/C=C(/C)C[C@H](OC(C)=O)[C@H](OC(C)=O)[C@@]12C` (stereo not given in full), the EC50 is > 123 µM and the IC50 is 75.9 µM.
Consider `Cc1cc(NS(=O)(=O)c2ccc(NC(=O)c3ccc4nc5ccccc5c(Nc5ccc(S(N)(=O)=O)cc5)c4c3)cc2)no1`, for which the EC50 was > 81.3 µM and the half-maximal inhibitory concentration (IC50) was 29.5 µM.
Taken in the same sequence, the figures for `NC1=NN(c2ccccc2)C(=O)C1/C(=N\NC(=O)c1cc2ccccc2cc1O)C(=O)Nc1nc([N+](=O)[O-])cs1` (stereo not given) were > 12.9 µM and > 12.9 µM.
On to `COC(=O)C1=C(O)C(C(=O)OC)[C@]2(O)[C@@H](C(=O)OC)[C@H]1C[C@@H](c1ccccc1)[C@@H]2C(=O)OC` (stereo not given in full), for which the EC50 was > 200 µM and the concentration for half-maximal inhibition (IC50) amounted to 18.6 µM.
For `CCCCNC(=S)/C(C#N)=C1\Nc2ccccc2O1`, in that order: > 200 µM and 32.4 µM.
For `O=C(c1ccc([N+](=O)[O-])cc1)N1CCCC1`, in that order: > 200 µM and > 200 µM.
Taken in the same sequence, the figures for `Cc1ccc(S(=O)(=O)N/N=C2/CC3CCC4CC2CC34)cc1` (stereo not given) were > 200 µM and 79.4 µM.
For the compound `CCCCCCCCCCCCOP(=O)(O)OCC(N)C(=O)O` (stereo not given), the EC50 was > 200 µM and the IC50 is 10.2 µM.
For `CCCCOC(=O)C1OC12CCCCC2` (stereo not given), the EC50 is > 200 µM and the IC50 is 151 µM.
Taken in the same sequence, the figures for `Nc1nn2cc3c(nc2c1N=Nc1ccc(Cl)cc1)CCCCC3` were > 151 µM and > 151 µM.
For `CC1c2ccccc2NC(=O)N1N1CCOCC1` (stereo not given), in that order: > 200 µM and > 200 µM.
Take `CN1c2ccccc2S(=O)(=O)n2c(COc3ccccc3)nnc21`: the EC50 was > 200 µM and the concentration for half-maximal inhibition (IC50) is > 200 µM.
As to `N#CC(c1ccccc1)(c1ccccc1)[C@@H](c1ccccc1)[C@H](Cc1ccccc1)NS(=O)(=O)c1ccccc1`, the EC50 is > 200 µM and the IC50 is > 200 µM.
As for `Cc1cc(S(=O)(=O)N=C2N(Cc3ccccc3)CCN2Cc2ccccc2)c(S)cc1Cl`, the EC50 was > 200 µM and the IC50 is > 200 µM.
As for `C=CC[P@]1(=O)O[C@H](c2ccccc2)C(C)N1C(C)C` (stereo not given in full), the outcome was inactive.
Turning to `CC(=O)Oc1cc(OC(C)=O)c2c(c1)OC(c1ccc(OC(C)=O)c(OC(C)=O)c1)CC2=O` (stereo not given), the EC50 is > 57.5 µM and the concentration for half-maximal inhibition (IC50) was > 57.5 µM.
`N[C@@H]1c2c(csc2Br)C(=O)[C@@H]1O`: the EC50 is > 200 µM and the IC50 came out at 11 µM.
In the case of `CN(C)c1ccc(C2SCC(=O)N2c2ccc(Oc3ccc(Cl)cc3)c(Cl)c2)cc1` (stereo not given), the EC50 was > 200 µM and the concentration for half-maximal inhibition (IC50) stood at 29.5 µM.
Taken in the same sequence, the figures for `CCN(CC)CCNc1nc(N)c(C#N)c(C#N)c1C#N` were > 200 µM and 174 µM.
For the compound `COc1ccc2c(c1)Oc1cc(O)ccc1[C@@H]2c1ccccc1C(=O)NC(C)c1ccccc1` (stereo not given in full), the EC50 was > 15.8 µM and the IC50 was 14.5 µM.
Take `CC(=O)N/N=C1\CC(C)(C)C2CCC1C2` (stereo not given): the outcome was inactive.
For `Cc1ccc(C(=O)N2c3ccccc3N(C)n3cccc3C2CC(=O)O)cc1` (stereo not given), the EC50 is > 661 µM and the IC50 stood at 148 µM.
For `CC(C)CC(NC(=O)OCC[P+](c1ccccc1)(c1ccccc1)c1ccccc1)C(=O)O` (stereo not given), in that order: > 200 µM and 9.12 µM.
Taken in the same sequence, the figures for `Nc1nc(Cl)c(CO)c(NCC2(CO)CCC2)n1` were > 200 µM and 191 µM.
As for `CON(C)C(=O)[C@H]1C[C@@]1(C)CO`, the EC50 was > 200 µM and the IC50 is > 200 µM.
Take `ONC1=Nc2ccccc2C(=S)N2CSCC12` (stereo not given): the EC50 is > 200 µM and the IC50 was > 200 µM.
On to `CCc1cc2c(Nc3ccccc3)c3c(nc2s1)CCCC3`, for which the EC50 is > 85.1 µM and the concentration for half-maximal inhibition (IC50) is > 85.1 µM.
As for `Cc1[nH]c(-c2ccccc2)c(O)c1C(=O)OC1CC(C)CCC1C(C)C` (stereo not given), the EC50 is > 200 µM and the IC50 worked out at 23.4 µM.
With `CC1(C)COP(Oc2ccccc2)OC1`, the EC50 is > 200 µM and the 50% inhibitory concentration (IC50) is > 200 µM.
Take `COC(CNC(=O)C(C)NC(=O)/C=C/c1ccccc1)OC` (stereo not given): the outcome was inactive.
Regarding `N#CCCC1(CCC#N)CCc2ccccc2C1=O`, the EC50 was > 200 µM and the half-maximal inhibitory concentration (IC50) was > 200 µM.
For `CC(=O)/C(C=Nc1c(C)n(C)n(C)c1=O)=C(/O)c1ccccc1`, the EC50 was > 200 µM and the concentration for half-maximal inhibition (IC50) stood at 89.1 µM.
For `N#CC1CCCCCCCCCCC(=O)N(CCCl)C1=O` (stereo not given), the EC50 was > 60.3 µM and the IC50 is > 60.3 µM.
As to `CCCCC1OCCOC1C1COCCO1` (stereo not given), the EC50 is > 195 µM and the IC50 is > 195 µM.
With `Cc1cc(Cl)cc2c1NC(=O)C2(O)C(C)C(=O)c1ccc(Cl)cc1` (stereo not given), the EC50 is > 186 µM and the concentration for half-maximal inhibition (IC50) was 123 µM.
Take `O=C1CC2CCC(C1)S2`: the EC50 was > 200 µM and the half-maximal inhibitory concentration (IC50) was > 200 µM.
On to `CC1CC(C)(C)N=C(CCCO)O1` (stereo not given), for which the EC50 is > 200 µM and the IC50 is > 200 µM.
In the case of `CCOC(=O)COc1ccc(/C=C/C(=O)c2ccc(OC)cc2)cc1`, the EC50 is > 200 µM and the IC50 was determined as 11.2 µM.
Taken in the same sequence, the figures for `COC(OC)c1cccc2c1C1(O)CCC3(CC21)OCCCCO3` (stereo not given) were > 200 µM and > 200 µM.
Taken in the same sequence, the figures for `O=S(=O)(OCCSS(=O)(=O)c1ccccc1)c1ccccc1` were > 437 µM and > 437 µM.
Taken in the same sequence, the figures for `O=c1c2c(sc3ccccc13)CCC2` were > 151 µM and > 151 µM.
Take `N/C(=N\N=C\c1ccccn1)NO`: the EC50 is > 200 µM and the IC50 was 33.1 µM.
Taken in the same sequence, the figures for `O=C(O)c1ccc(C(=O)O)c(C(=O)c2cc(C(=O)O)ccc2C(=O)O)c1` were > 162 µM and 61.7 µM.
Take `NC(CCC(=O)O)(C(=O)O)c1ccccc1` (stereo not given): the EC50 is > 200 µM and the concentration for half-maximal inhibition (IC50) is > 200 µM.
`COC(=O)C12C3C4C5(C(=O)OC)C(C1C35C(=O)N(C(C)C)C(C)C)C42C(=O)N(C(C)C)C(C)C` (stereo not given): the EC50 was > 55 µM and the half-maximal inhibitory concentration (IC50) is > 55 µM.
For `Cn1nc2c(c1N)Cc1c(nn(C)c1N)-c1ccccc1-2`, the EC50 is > 200 µM and the half-inhibitory concentration (IC50) was determined as 191 µM.
For `CCOC(=O)C(Cl)C1(O)Cc2cccc3cccc1c23` (stereo not given), in that order: > 200 µM and 110 µM.
Taken in the same sequence, the figures for `O=C1CCCc2cc3c(cc21)CC1(C3)Cc2ccc3c(c2C1)C(=O)CCC3` (stereo not given) were > 200 µM and 16.2 µM.
Regarding `Cc1ccccc1NC(=O)C(=O)CC(=O)c1sc(Nc2ccccc2[N+](=O)[O-])nc1C`, the EC50 was > 200 µM and the IC50 is > 200 µM.
For the compound `CCN(CC)CCCNc1ncnc2c1C(c1ccccc1)c1ccccc1-2` (stereo not given), the EC50 is > 676 µM and the IC50 amounted to 33.1 µM.
For `CC[C@@]1(O)C(=O)OCc2c1cc1n(c2=O)Cc2cc3c(OC)cccc3nc2-1`, the EC50 is > 0.1 µM and the IC50 came out at 0.0141 µM.
On to `O=c1[nH]c(=O)n(COC(CO)CO)cc1-c1ccccc1`, for which the EC50 is > 200 µM and the IC50 is > 200 µM.
